# Laboratory results published in patent US7208572B2, “Leptin-related peptides” (Albany Medical College, priority 1998, dated 2007).
# Marks after values point to notes of the source that are not given here. Square brackets hold non-standard residues; d marks the D form. Ends that are not written are not given here.
# What was measured:
# Format in all cases: in vivo, mouse
# [1] = Truncated and D-amino acid-substituted analogs: body weight, food and water intake in female C57BL/6J ob/ob mice, 7 days; conditions: for Cumulative food intake / Heavier (+) or lighter (−) than initial weight / Weight gain (+) or loss (−) / Increase (+) or decrease (−) of cumulative food intake: D-analog series
# Experimental: A. Housing: 6–8-week old homozygous female obese (ob/ob) and wild type (+1+) mice (C57BL/6J, Jackson Laboratory, Bar Harbor, Maine) were maintained in a temperature-controlled room (24° C.) in the Albany Medical College Animal Resources Facility under alternating 12-h light and dark periods (lights on 0700–1900 h). The animals were housed three per cage, and allowed food and water ad libitum for six days following their arrival.
# Food and water remaining after 24 h was measured to the nearest 0.1 g and 0.1 ml, respectively, and the average amount consumed per mouse was calculated (mean±SEM, n=6). The mice were weighed once daily between 0900 and 1100 h on an Acculab V-333 electronic balance (Cole-Parmer, Vernon Hills, Ill.)
# C. […] Control mice received 0.2 ml PBS (ip) only.
# Female C7BL/6J ob/ob mice were given a single ip injection of vehicle (PBS, pH 7.2), LEP-(116–130) or truncated peptide (1 mg/200 ul PBS) for seven consecutive days. Daily changes in body weight compared to pretreatment weights of vehicle-injected control and peptide-treated mice were analyzed.
# [2] = Blood glucose in female C57BL/6J ob/ob mice (Example 11); conditions: 1 mg/day ip
# Experimental: D. Measurement of blood glucose: Blood was drawn from the tail vein of each mouse 2 h before the onset of the dark period at the beginning of the study, and after 2, 4, and 6 days of peptide treatment. The blood was applied to a test strip, and glucose levels were measured with a Glucometer Elite (Bayer, Elkhart, Ind.) glucose monitor.
# [3] = Epitope mapping: body weight and food intake in female C57BL/6J ob/ob mice, 7 daily ip injections; conditions: 1 mg/day ip, 7 days
# Experimental: Animal procedures. Feeding and weighing schedules, as well as peptide administration protocols, are as described in EXAMPLE 8, supra.
# Statistical analysis. Changes in body weight and differences in food intake between peptide-treated and vehicle-injected control mice were analyzed by analysis of variance (ANOVA) and considered significant when P<0.05.
# Female ob/ob mice (n=6 per group) were given a single ip injection of 0.2 ml of vehicle (PBS, pH 7.2) or leptin-related synthetic peptide amide in 0.2 ml PBS for 7 consecutive days. Daily changes in body weight compared to pretreatment weights in both vehicle-injected control and peptide-treated mice are shown in FIG. 4. […] There was no evidence of weight loss in response to peptide treatment.
# [4] = 12-day ip study of body weight gain and food intake in female C57BL/6J ob/ob mice; conditions: 1 mg/day ip, 12 days
# Experimental: The graphs show changes in body weight (expressed as percent of initial weight) and food intake (expressed as mg/gm body weight/mouse) for mice given vehicle or synthetic leptin-related peptide OB3 (1 mg/day, ip, 12 days).
# Mice were injected with leptin-related synthetic peptide (1 mg/g body weight, ip) or vehicle daily for 12 consecutive days. Each bar represents mean±SEM food consumption per mouse (n=6 mice per group) after 3, 6, 9 and 12 days of treatment.
# Each value represents mean±SEM change in body weight for a group of 6 mice.
# Mice were injected with leptin-related synthetic peptide (1 mg/g body weight, ip) or vehicle for 12 consecutive days. Each bar and vertical line represents mean±food consumption per mouse (n=6 mice per group) after 3, 6, 9 and 12 days of treatment.
Substance,"Cumulative water intake ([1]; 1 mg/day ip, 7 days)","Cumulative food intake ([1]; 1 mg/day ip, 7 days)","Heavier (+) or lighter (−) than initial weight ([1]; 1 mg/day ip, 7 days)","Weight gain (+) or loss (−) ([1]; 1 mg/day ip, 7 days)",Food intake of D-analogs ([1]; 7 days),Increase (+) or decrease (−) of cumulative water intake ([1]; vs vehicle),Increase (+) or decrease (−) of cumulative food intake ([1]; vs vehicle),Serum glucose level ([2]; Day 2),Serum glucose level ([2]; Day 4),Serum glucose level ([2]; Day 6),Cumulative food intake [3],Percent heavier (+) or lighter (−) than initial weight [3],Weight gain (+) or loss (−) [3],Body weight gain and food intake vs vehicle [4],"Cumulative food intake g/mouse3 g/mouse3 ([1]; 1 mg/day ip, 7 days)","Decrease(%) of cumulative food intake ([1]; 1 mg/day ip, 7 days, vs vehicle)",Food intake less than vehicle-injected control mice ([1]; 7 days),Water consumption relative to OB3 ([1]; 7 days)
Ser-Cys-Ser-Leu-Pro-[D-Gln]-Thr (SCSLP[dQ]T) [[D-Gln-6]-OB3],57.1 ± 1.0 ml/mouse,43.5 ± 0.9 g/mouse,+4.6%,+2.1 ± 0.14 g,"reduced food intake when compared to vehicle-injected control mice, but not to the level seen in mice receiving OB3",−11.1%,−13.7%,394.0 ± 45.4 mg/dL,354.5 ± 17.3 mg/dL,358.0 ± 28.1 mg/dL,–,–,–,–,–,–,–,–
D F I P G L H P I L S L S K M (DFIPGLHPILSLSKM) [LEP(61–75)],–,–,–,–,–,–,–,–,–,–,44.6 ± 2.3 gm/mouse,+24.0%,+5.9 g,–,–,–,–,–
[D-Ser]-Cys-Ser-Leu-Pro-Gln-Thr ([dS]CSLPQT) [[D-Ser-1]-OB3],58.0 ± 1.8 ml/mouse,44.4 ± 1.4 g/mouse,+4.6%,+3.3 ± 0.18 g,"reduced food intake when compared to vehicle-injected control mice, but not to the level seen in mice receiving OB3",−9.7%,−11.9%,356.0 ± 21.2 mg/dL,360.1 ± 25.1 mg/dL,287.0 ± 24.4 mg/dL,–,–,–,–,–,–,–,–
V S A K Q R V T G L D F I P G (VSAKQRVTGLDFIPG; not fully specified) [LEP(51–65)],–,–,–,–,–,–,–,–,–,–,40.7 ± 0.6 gm/mouse,+25.0%,+6.4 g,"not significantly (i.e., P>0.05) different",–,–,–,–
Ser-Cys-Ser-Leu-Pro-Gln-[D-Thr] (SCSLPQ[dT]; not fully specified; printed as Ser-Cys-Ser-Leu-Pro-Gln-[D-Thr]) [[D-Thr-7]-OB3],68.3 ± 2.7 ml/mouse,56.1 ± 0.6 g/mouse,+10.6%,+4.6 ± 0.34 g,slight increase in food consumption,+6.4%,+11.3%,384.2 ± 18.1 mg/dL,405.5 ± 16.0 mg/dL,375.7 ± 17.8 mg/dL,–,–,–,–,–,–,–,–
[D-Ser][D-Cys][D-Ser][D-Leu][D-Pro][D-Gln][D-Thr] [[D]-OB3],67.5 ± 2.2 ml/mouse,52.7 ± 1.0 g/mouse,+10.0%,+4.0 ± 0.36 g,slight increase in food consumption,+5.1%,+4.6%,325.7 ± 31.5 mg/dL,405.5 ± 35.8 mg/dL,401.8 ± 25.0 mg/dL,–,–,–,–,–,–,–,–
R I N D I S H T Q S V S A K Q (RINDISHTQSVSAKQ) [LEP(41–55)],–,–,–,–,–,–,–,–,–,–,39.4 ± 1.5 gm/mouse,+27.6%,+5.9 g,"not significantly (i.e., P>0.05) different",–,–,–,–
SCSLPQ [LEP-(116–121)],–,–,–,–,–,–,–,–,–,–,–,–,–,–,41.6 ± 1.4 g/mouse,6.8%,6.8%,–
SCSL[dP]QT [[D-Pro-5]-OB3],32.2 ± 0.8^b ml/mouse,36.0 ± 12^b g/mouse,+2.4%,+1.2 ± 0.13^b g,equivalent to that of mice receiving OB3,−49.8%,−28.6%,272.0 ± 22.2^b mg/dl,213.0 ± 28.4^a mg/dl,202.8 ± 31.4^a mg/dl,–,–,–,–,–,–,–,significantly less than that seen in mice receiving OB3
